biological target: T1, Human plasma kallikrein (Homo sapiens, UniProt P03952); assay: Plasma Kallikrein Assay; assay type: biochemical; settings: purified Human plasma kallikrein 0.5 nM, substrate Acetyl-K-P-R-AFC, pH 7.4
T1 construct: yields a heavy chain (371 amino acids) and a light chain (248 amino acids); purchased Enzyme Research Laboratories
T1 sequence (P03952 391-638 limits assumed): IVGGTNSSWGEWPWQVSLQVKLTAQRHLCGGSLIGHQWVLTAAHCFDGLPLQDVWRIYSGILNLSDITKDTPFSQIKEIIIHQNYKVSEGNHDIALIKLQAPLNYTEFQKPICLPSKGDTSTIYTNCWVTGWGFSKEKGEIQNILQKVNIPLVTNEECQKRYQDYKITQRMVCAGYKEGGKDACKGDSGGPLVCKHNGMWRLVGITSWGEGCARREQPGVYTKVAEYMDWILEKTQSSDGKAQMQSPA
T1 sequence (P03952 20-390 partner limits assumed): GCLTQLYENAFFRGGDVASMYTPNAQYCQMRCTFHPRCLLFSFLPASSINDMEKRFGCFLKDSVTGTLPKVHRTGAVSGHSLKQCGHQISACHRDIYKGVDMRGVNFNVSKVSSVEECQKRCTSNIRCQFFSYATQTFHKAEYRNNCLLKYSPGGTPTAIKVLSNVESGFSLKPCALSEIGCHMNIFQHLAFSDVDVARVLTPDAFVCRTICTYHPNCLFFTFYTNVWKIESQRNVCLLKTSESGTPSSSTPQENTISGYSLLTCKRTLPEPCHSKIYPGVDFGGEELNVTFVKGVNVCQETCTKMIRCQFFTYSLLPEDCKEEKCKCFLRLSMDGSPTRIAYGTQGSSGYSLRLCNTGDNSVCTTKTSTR

Row | Structure (SMILES) | IC50
1 | CC(c1ccc(N2CCC2)nc1)n1cc(NC(=O)c2cncc(-c3c(C(F)F)ccc(Cl)c3F)n2)cn1 (single isomer, unassigned) [Example 38, (R or S)-N-(1-(1-(6-(azetidin-1-yl)pyridin-3-yl)ethyl)-1H-pyrazol-4-yl)-6-(3-chloro-6-(difluoromethyl)-2-fluorophenyl)pyrazine-2-carboxamide] | 5 nM
2 | CC(c1cnc(N2C[C@H]3C[C@H]3[C@H]2C(N)=O)nc1)n1cc(NC(=O)c2cncc(-c3c(C(F)F)ccc(Cl)c3F)n2)cn1 (relative stereo) [Example 195, (cis)-3-(5-(1-(4-(6-(3-Chloro-6-(difluoromethyl)-2-fluorophenyl)pyrazine-2-carboxamido)-1H-pyrazol-1-yl)ethyl)pyrimidin-2-yl)-3-azabicyclo[3.1.0]hexane-2-carboxamide] | 11 nM
3 | O=C(Nc1cnn(Cc2cnc(N3C[C@H]4C[C@H]4[C@H]3CN3CC(O)(C(F)(F)F)C3)nc2)c1)c1cncc(-c2c(C(F)F)ccc(Cl)c2F)n1 [Example 155, 6-(3-Chloro-6-(difluoromethyl)-2-fluorophenyl)-N-(1-((2-((1R,2S,5S)-2-((3-hydroxy-3-(trifluoromethyl)azetidin-1-yl)methyl)-3-azabicyclo[3.1.0]hexan-3-yl)pyrimidin-5-yl)methyl)-1H-pyrazol-4-yl)pyrazine-2-carboxamide] | 1.8 nM
4 | CC(c1ccc(N2CCC2)nc1)n1cc(NC(=O)c2cncc(-c3c(C(F)F)ccc(Cl)c3F)n2)cn1 (single isomer, unassigned) [Example 37, (S or R)-N-(1-(1-(6-(azetidin-1-yl)pyridin-3-yl)ethyl)-1H-pyrazol-4-yl)-6-(3-chloro-6-(difluoromethyl)-2-fluorophenyl)pyrazine-2-carboxamide] | 25.6 nM
5 | CC(c1cnc(N(CCO)Cc2ccccn2)nc1)n1cc(NC(=O)c2cncc(-c3c(C(F)F)ccc(Cl)c3F)n2)cn1 (centres unmarked) [Example 85, 6-(3-Chloro-6-(difluoromethyl)-2-fluorophenyl)-N-(1-(1-(2-((2-hydroxyethyl)(pyridin-2-ylmethyl)amino)pyrimidin-5-yl)ethyl)-1H-pyrazol-4-yl)pyrazine-2-carboxamide] | 11.8 nM
6 | O=C(Nc1cnn(Cc2ccc(N3CC4CCC(C3)N4)nc2)c1)c1cncc(-c2c(C(F)F)ccc(Cl)c2F)n1 [Example 204, N-(1-((6-(3,8-Diazabicyclo[3.2.1]octan-3-yl)pyridin-3-yl)methyl)-1H-pyrazol-4-yl)-6-(3-chloro-6-(difluoromethyl)-2-fluorophenvl)pyrazine-2-carboxamide] | 17.5 nM
7 | CC1CCN1c1ncc(C(C)n2cc(NC(=O)c3cncc(-c4c(C(F)F)ccc(Cl)c4F)n3)cn2)cn1 (racemic) [Example 100, 6-(3-Chloro-6-(difluoromethyl)-2-fluorophenyl)-N-(1-((R and S)-1-(2-((R and S)-2-methylazetidin-1-yl)pyrimidin-5-yl)ethyl)-1H-pyrazol-4-yl)pyrazine-2-carboxamide] | 20.6 nM
8 | CN(C)CCN(CCO)c1ncc(Cn2cc(NC(=O)c3cncc(-c4c(C(F)F)ccc(Cl)c4F)n3)cn2)cn1 [Example 88, 6-(3-Chloro-6-(difluoromethyl)-2-fluorophenyl)-N-(1-((2-((2-(dimethylamino)ethyl)(2-hydroxyethyl)amino)pyrimidin-5-yl)methyl)-1H-pyrazol-4-yl)pyrazine-2-carboxamide] | 14.9 nM
9 | CC(c1cnc(N2Cc3ccncc3C2)nc1)n1cc(NC(=O)c2cncc(-c3c(C(F)F)ccc(Cl)c3F)n2)cn1 (centres unmarked) [Example 89, 6-(3-Chloro-6-(difluoromethyl)-2-fluorophenyl)-N-(1-(1-(2-(1,3-dihydro-2H-pyrrolo[3,4-c]pyridin-2-yl)pyrimidin-5-yl)ethyl)-1H-pyrazol-4-yl)pyrazine-2-carboxamide] | 17.3 nM
10 | CC(c1cnc(N2C[C@H]3C[C@H]3C2C(=O)N(C)C)nc1)n1cc(NC(=O)c2cncc(-c3c(C(F)F)ccc(Cl)c3F)n2)cn1 (single isomer, unassigned) [Example 201, (1R,2S,5S or 1S,2R,5R)-3-(5-((S or R)-1-(4-(6-(3-Chloro-6-(difluoromethyl)-2-fluorophenyl)pyrazine-2-carboxamido)-1H-pyrazol-1-yl)ethyl)pyrimidin-2-yl)-N,N-dimethyl-3-azabicyclo[3.1.0]hexane-2-carboxamide] | 6.2 nM
11 | O=C(Nc1cnn(Cc2ccc(N3CC4C(C3)C4(F)F)nc2)c1)c1cncc(-c2c(C(F)F)ccc(Cl)c2F)n1 (centres unmarked) [Example 127, 6-(3-Chloro-6-(difluoromethyl)-2-fluorophenyl)-N-(1-((6-(6,6-difluoro-3-azabicyclo[3.1.0]hexan-3-yl)pyridin-3-yl)methyl)-1H-pyrazol-4-yl)pyrazine-2-carboxamide] | 31.3 nM
12 | CN(C)C(=O)[C@@H]1CCCN1c1ccc(Cn2cc(NC(=O)c3cncc(-c4c(C(F)F)ccc(Cl)c4F)n3)cn2)cn1 [Example 125, (S)-6-(3-Chloro-6-(difluoromethyl)-2-fluorophenyl)-N-(1-((6-(2-(dimethylcarbamoyl)pyrrolidin-1-yl)pyridin-3-yl)methyl)-1H-pyrazol-4-yl)pyrazine-2-carboxamide] | 28.3 nM
13 | Nc1ncc(-c2c(C(F)F)ccc(Cl)c2F)nc1C(=O)Nc1cnn(Cc2cnc(N3CCC3)nc2)c1 [Example 3, 3-Amino-N-(1-((2-(azetidin-1-yl)pyrimidin-5-yl)methyl)-1H-pyrazol-4-yl)-6-(3-chloro-6-(difluoromethyl)-2-fluorophenyl)pyrazine-2-carboxamide] | 40.5 nM
14 | CC(c1cnc(N2CC[C@H]2[C@@H](C)N[C@H](C)C(C)(C)O)nc1)n1cc(NC(=O)c2cncc(-c3c(C(F)F)ccc(Cl)c3F)n2)cn1 (stereo partly drawn) [Example 194, 6-(3-Chloro-6-(difluoromethyl)-2-fluorophenyl)-N-(1-(1-(2-((S)-2-((R)-1-(((R)-3-hydroxy-3-methylbutan-2-yl)amino)ethyl)azetidin-1-yl)pyrimidin-5-yl)ethyl)-1H-pyrazol-4-yl)pyrazine-2-carboxamide] | 21.6 nM
15 | O=C(Nc1cnn(Cc2cnc(N3CCCC3CN3CCOCC3)nc2)c1)c1cncc(-c2c(C(F)F)ccc(Cl)c2F)n1 (centres unmarked) [Example 153, 6-(3-Chloro-6-(difluoromethyl)-2-fluorophenyl)-N-(1-((2-(2-(morpholinomethyl)pyrrolidin-1-yl)pyrimidin-5-yl)methyl)-1H-pyrazol-4-yl)pyrazine-2-carboxamide] | 1.1 nM
16 | CC(C)(O)CC1CCCN1c1ncc(Cn2cc(NC(=O)c3cncc(-c4c(C(F)F)ccc(Cl)c4F)n3)cn2)cn1 (single isomer, unassigned) [Example 110, (S or R)-6-(3-Chloro-6-(difluoromethyl)-2-fluorophenyl)-N-(1-((2-(2-(2-hydroxy-2-methylpropyl)pyrrolidin-1-yl)pyrimidin-5-yl)methyl)-1H-pyrazol-4-yl)pyrazine-2-carboxamide] | 46.2 nM
17 | NC(=O)[C@@H]1CCCN1c1ccc(Cn2cc(NC(=O)c3cncc(-c4c(C(F)F)ccc(Cl)c4F)n3)cn2)cn1 [Example 116, (S)-N-(1-((6-(2-Carbamoylpyrrolidin-1-yl)pyridin-3-yl)methyl)-1H-pyrazol-4-yl)-6-(3-chloro-6-(difluoromethyl)-2-fluorophenyl)pyrazine-2-carboxamide] | 3.6 nM
18 | CC(c1cnc(N2CC3CC3C2C#N)nc1)n1cc(NC(=O)c2cncc(-c3c(C(F)F)ccc(Cl)c3F)n2)cn1 (single isomer, unassigned) [Example 198] | 189 nM
19 | CC(=O)N1CC[C@@H]2CN(c3ccc(Cn4cc(NC(=O)c5cncc(-c6c(C(F)F)ccc(Cl)c6F)n5)cn4)cn3)[C@@H]2C1 [Example 133, N-(1-((6-((1S,6R)-3-Acetyl-3,8-diazabicyclo[4.2.0]octan-8-yl)pyridin-3-yl)methyl)-1H-pyrazol-4-yl)-6-(3-chloro-6-(difluoromethyl)-2-fluorophenyl)pyrazine-2-carboxamide] | 49.5 nM
20 | CC(=O)N1CC[C@H]2CN(c3ccc(Cn4cc(NC(=O)c5cncc(-c6c(C(F)F)ccc(Cl)c6F)n5)cn4)cn3)[C@H]2C1 [Example 131, N-(1-((6-((1R,6S)-3-Acetyl-3,8-diazabicyclo[4.2.0]octan-8-yl)pyridin-3-yl)methyl)-1H-pyrazol-4-yl)-6-(3-chloro-6-(difluoromethyl)-2-fluorophenyl)pyrazine-2-carboxamide] | 37.6 nM
21 | C[C@H](c1cnc(N2C[C@H]3C[C@H]3[C@H]2C#N)nc1)n1cc(NC(=O)c2cncc(-c3c(C(F)F)ccc(Cl)c3F)n2)cn1 (single isomer, unassigned) [Example 196] | 4.7 nM

biological target: human factor XIa (Homo sapiens, UniProt P03951); assay: Factor XIa Assay; assay type: biochemical; settings: human factor XIa 0.04 nM, substrate GPR-AFC, 30 min pre-incubation at 25° C., pH 7.4; read-out: FXIa IC50
Method: The effectiveness of a compound of the present invention as an inhibitor of Coagulation factor XIa can be determined using a relevant purified serine protease, and an appropriate synthetic substrate. The rate of hydrolysis of the chromogenic or fluorogenic substrate by the relevant serine protease was measured both in the absence and presence of compounds of the present invention. Assays were conducted at rt or at 37° C. […] A decrease in the rate of fluorescence change in the presence of inhibitor is indicative of enzyme inhibition. Such methods are known to one skilled in the art. The results of this assay are expressed as the half-maximal inhibitory concentrations (IC50), or the inhibitory constant, Ki.
Compounds were pre-incubated for 30 min at 25° C. with human (0.04 nM) factor XIa in 50 mM HEPES buffer with 150 mM sodium chloride, 5 mM calcium chloride, 0.1% PEG 8000, pH 7.4. factor XIa enzymatic activity was determined by addition of the substrate glycine-proline-arginine-7-amido-4-trifluoromethylcoumarin (GPR-AFC) and measurement of the fluorescence at 400/505 nm after a 60 min incubation at 25° C. The % inhibition for each data point was calculated from the data and analyzed using the log (inhibitor) vs. response four parameters equation to determine the half-maximal inhibitory concentrations (IC50). The IC50 were converted to equilibrium inhibitory constants (Ki) using the Cheng-Prusoff equation.

human factor XIa, sequence (P03951 388-625 limits assumed): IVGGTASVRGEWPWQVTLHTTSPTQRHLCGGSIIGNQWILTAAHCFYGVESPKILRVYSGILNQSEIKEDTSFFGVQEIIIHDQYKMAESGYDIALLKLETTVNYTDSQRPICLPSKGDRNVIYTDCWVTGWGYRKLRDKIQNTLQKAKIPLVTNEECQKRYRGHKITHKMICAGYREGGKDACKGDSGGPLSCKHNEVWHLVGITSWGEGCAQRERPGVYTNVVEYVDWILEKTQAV
human factor XIa, sequence (P03951 19-387 partner limits assumed): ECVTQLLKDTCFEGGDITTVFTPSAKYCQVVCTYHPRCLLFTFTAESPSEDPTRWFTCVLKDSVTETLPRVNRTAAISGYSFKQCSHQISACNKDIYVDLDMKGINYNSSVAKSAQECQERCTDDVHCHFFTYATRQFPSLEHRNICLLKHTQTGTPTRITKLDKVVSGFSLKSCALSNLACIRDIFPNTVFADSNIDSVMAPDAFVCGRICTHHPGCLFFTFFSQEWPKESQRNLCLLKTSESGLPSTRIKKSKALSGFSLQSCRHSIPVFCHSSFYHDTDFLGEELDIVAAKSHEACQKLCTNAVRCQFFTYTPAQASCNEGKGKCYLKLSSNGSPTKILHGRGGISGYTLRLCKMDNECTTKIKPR

Row | Structure (SMILES) | IC50
22 | CC(c1ccc(N2CCC2)nc1)n1cc(NC(=O)c2cncc(-c3c(C(F)F)ccc(Cl)c3F)n2)cn1 (single isomer, unassigned) [Example 38, (R or S)-N-(1-(1-(6-(azetidin-1-yl)pyridin-3-yl)ethyl)-1H-pyrazol-4-yl)-6-(3-chloro-6-(difluoromethyl)-2-fluorophenyl)pyrazine-2-carboxamide] | 2580 nM
23 | CC(c1cnc(N2C[C@H]3C[C@H]3[C@H]2C(N)=O)nc1)n1cc(NC(=O)c2cncc(-c3c(C(F)F)ccc(Cl)c3F)n2)cn1 (relative stereo) [Example 195, (cis)-3-(5-(1-(4-(6-(3-Chloro-6-(difluoromethyl)-2-fluorophenyl)pyrazine-2-carboxamido)-1H-pyrazol-1-yl)ethyl)pyrimidin-2-yl)-3-azabicyclo[3.1.0]hexane-2-carboxamide] | 8800 nM
24 | O=C(Nc1cnn(Cc2cnc(N3C[C@H]4C[C@H]4[C@H]3CN3CC(O)(C(F)(F)F)C3)nc2)c1)c1cncc(-c2c(C(F)F)ccc(Cl)c2F)n1 [Example 155, 6-(3-Chloro-6-(difluoromethyl)-2-fluorophenyl)-N-(1-((2-((1R,2S,5S)-2-((3-hydroxy-3-(trifluoromethyl)azetidin-1-yl)methyl)-3-azabicyclo[3.1.0]hexan-3-yl)pyrimidin-5-yl)methyl)-1H-pyrazol-4-yl)pyrazine-2-carboxamide] | 3680 nM
25 | CC(c1ccc(N2CCC2)nc1)n1cc(NC(=O)c2cncc(-c3c(C(F)F)ccc(Cl)c3F)n2)cn1 (single isomer, unassigned) [Example 37, (S or R)-N-(1-(1-(6-(azetidin-1-yl)pyridin-3-yl)ethyl)-1H-pyrazol-4-yl)-6-(3-chloro-6-(difluoromethyl)-2-fluorophenyl)pyrazine-2-carboxamide] | 2700 nM
26 | O=C(Nc1cnn(Cc2cnc(N3C[C@H]4C[C@H]4[C@H]3CN[C@H]3CCC[C@@H]3O)nc2)c1)c1cncc(-c2c(C(F)F)ccc(Cl)c2F)n1 [Example 149, 6-(3-Chloro-6-(difluoromethyl)-2-fluorophenyl)-N-(1-((2-((1R,2S,5S)-2-((((1S,2S)-2-hydroxycyclopentyl)amino)methyl)-3-azabicyclo[3.1.0]hexan-3-yl)pyrimidin-5-yl)methyl)-1H-pyrazol-4-yl)pyrazine-2-carboxamide] | 1480 nM
